Columns and labels:
Experiment in all cases: Inhibition of recombinant UGT-catalyzed 4-MU glucuronidation
Type in all cases: biochemical
UGT1A10 = biological target: T1, UGT1A10 (Homo sapiens, UniProt Q9HAW8); settings: pH 7.4, probe 4-methylumbelliferone (4-MU), 30 μM, 100 μM compound, 4-MU probe substrate, negative = activation
T1 construct: purchased BD Gentest Corp. (Woburn, MA, USA); host or cells: baculovirus-infected insect cells
T1 sequence (Q9HAW8 26-530): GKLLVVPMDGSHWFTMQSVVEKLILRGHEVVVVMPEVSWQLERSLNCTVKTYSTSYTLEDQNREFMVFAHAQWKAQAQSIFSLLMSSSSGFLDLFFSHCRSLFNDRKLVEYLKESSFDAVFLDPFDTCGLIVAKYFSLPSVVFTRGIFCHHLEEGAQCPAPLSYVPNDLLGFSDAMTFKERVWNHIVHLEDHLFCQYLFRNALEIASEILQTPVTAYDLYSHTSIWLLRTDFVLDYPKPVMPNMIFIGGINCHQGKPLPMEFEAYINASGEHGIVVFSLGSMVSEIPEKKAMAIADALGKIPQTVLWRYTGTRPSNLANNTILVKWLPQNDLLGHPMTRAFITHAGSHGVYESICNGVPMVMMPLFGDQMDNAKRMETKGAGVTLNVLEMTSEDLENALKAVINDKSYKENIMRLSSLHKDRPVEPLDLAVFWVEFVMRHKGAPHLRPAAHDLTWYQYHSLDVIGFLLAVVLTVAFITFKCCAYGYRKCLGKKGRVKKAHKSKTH

UGT1A6 = biological target: T2, UGT1A6 (Homo sapiens, UniProt P19224); settings: pH 7.4, probe 4-methylumbelliferone (4-MU), 110 μM, 100 μM compound, 4-MU probe substrate, negative = activation
T2 construct: purchased BD Gentest Corp. (Woburn, MA, USA); host or cells: baculovirus-infected insect cells
T2 sequence (P19224 27-532): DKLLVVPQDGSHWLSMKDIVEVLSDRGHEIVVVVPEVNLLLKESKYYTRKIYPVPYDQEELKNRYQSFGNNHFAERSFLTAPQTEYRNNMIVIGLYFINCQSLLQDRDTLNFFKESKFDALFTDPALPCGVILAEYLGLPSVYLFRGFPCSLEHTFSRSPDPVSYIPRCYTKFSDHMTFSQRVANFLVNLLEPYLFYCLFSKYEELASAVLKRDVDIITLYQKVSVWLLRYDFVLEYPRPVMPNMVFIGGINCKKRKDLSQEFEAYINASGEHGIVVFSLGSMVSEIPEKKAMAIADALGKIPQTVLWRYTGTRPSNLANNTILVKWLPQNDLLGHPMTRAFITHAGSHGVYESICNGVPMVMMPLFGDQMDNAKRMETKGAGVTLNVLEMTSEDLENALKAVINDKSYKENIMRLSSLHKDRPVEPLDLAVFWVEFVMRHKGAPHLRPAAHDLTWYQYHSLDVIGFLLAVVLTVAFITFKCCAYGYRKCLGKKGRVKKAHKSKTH

UGT1A1 = biological target: T3, UGT1A1 (Homo sapiens, UniProt P22309); settings: pH 7.4, probe 4-methylumbelliferone (4-MU), 110 μM, 100 μM compound, 4-MU probe substrate, negative = activation
T3 construct: purchased BD Gentest Corp. (Woburn, MA, USA); host or cells: baculovirus-infected insect cells
T3 sequence (P22309 26-533): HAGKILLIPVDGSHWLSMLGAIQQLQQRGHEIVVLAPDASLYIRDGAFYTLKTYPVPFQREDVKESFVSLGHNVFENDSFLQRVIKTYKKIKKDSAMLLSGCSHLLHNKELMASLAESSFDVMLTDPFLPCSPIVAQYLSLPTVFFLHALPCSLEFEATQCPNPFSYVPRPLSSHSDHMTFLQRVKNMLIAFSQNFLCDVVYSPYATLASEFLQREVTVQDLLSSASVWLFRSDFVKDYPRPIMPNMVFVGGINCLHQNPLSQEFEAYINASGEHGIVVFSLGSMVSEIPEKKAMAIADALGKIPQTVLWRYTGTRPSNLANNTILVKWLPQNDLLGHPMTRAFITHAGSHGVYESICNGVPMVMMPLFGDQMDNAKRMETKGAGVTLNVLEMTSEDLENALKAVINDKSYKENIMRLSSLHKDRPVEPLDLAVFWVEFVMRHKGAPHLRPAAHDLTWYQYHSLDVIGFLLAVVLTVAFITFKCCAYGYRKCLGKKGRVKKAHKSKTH

inhibition at 120 min, 100 µM (UGT1A10)	inhibition at 30 min, 100 µM (UGT1A6)	inhibition at 120 min, 100 µM (UGT1A1)	Compound
-86.4%	11.2%	14.5%	O=c1c2cc(O)c(O)cc2oc2cc(O)c([C@@H]3O[C@H](CO)[C@@H](O)[C@H](O)[C@H]3O)c(O)c12 [MGF, 1,3,6,7-tetrahydroxyxanthone-C-2-β-D-glucoside]
-272%	46.2%	50.8%	O=c1c2cc(O)c(O)cc2oc2cc(O)cc(O)c12 [NTR, 1,3,6,7-tetrahydroxyxanthone]
